Test results taken from PMC8000495, “A New Anti-Estrogen Discovery Platform Identifies FDA-Approved Imidazole Anti-Fungal Drugs as Bioactive Compounds against ERα Expressing Breast Cancer Cells” (International Journal of Molecular Sciences, 2021).

Columns and labels:
[1] = biological target: T1, estrogen receptor α (ERα) (Homo sapiens, UniProt P03372)
T1 construct: gene ESR1
T1 sequence (P03372 1-595): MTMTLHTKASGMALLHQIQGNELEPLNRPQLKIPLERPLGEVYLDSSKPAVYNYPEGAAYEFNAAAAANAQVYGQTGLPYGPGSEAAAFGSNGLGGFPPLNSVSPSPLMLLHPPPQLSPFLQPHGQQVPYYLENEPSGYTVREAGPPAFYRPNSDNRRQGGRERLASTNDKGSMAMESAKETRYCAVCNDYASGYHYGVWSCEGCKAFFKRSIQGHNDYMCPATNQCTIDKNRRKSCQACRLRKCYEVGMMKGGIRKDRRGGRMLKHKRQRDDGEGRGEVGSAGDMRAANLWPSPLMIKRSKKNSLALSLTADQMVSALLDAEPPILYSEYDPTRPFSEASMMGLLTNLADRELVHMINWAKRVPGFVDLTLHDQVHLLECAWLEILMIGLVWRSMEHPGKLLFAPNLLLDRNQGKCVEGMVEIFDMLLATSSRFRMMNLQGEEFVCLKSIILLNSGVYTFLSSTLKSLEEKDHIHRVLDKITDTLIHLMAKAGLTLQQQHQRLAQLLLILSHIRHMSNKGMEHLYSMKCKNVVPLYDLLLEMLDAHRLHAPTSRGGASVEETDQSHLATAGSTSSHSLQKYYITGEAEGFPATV

[2] = biological target: T1, estrogen receptor α (ERα); assay: fluorescence polarization competitive binding, dose-response

Structure (SMILES): Oc1ccc(/C=C/c2cc(O)cc(O)c2)cc1 [resveratrol]
- fluorescence polarization competitive binding screen, single dose 10^-4 M, Z* > [1]: we found well-known receptor ligands (e.g., estriol, resveratrol, genistein)

Structure (SMILES): Clc1ccc(C(Cn2ccnc2)OCc2ccc(Sc3ccccc3)cc2)c(Cl)c1 (centres unmarked) [Fenti, fenticonazole]
- IC50 [2]: ~14 µM
